Measured values reported in patent US4196205A, “3-Acetoxymethyl-7-(iminoacetamido)-cephalosporanic acid derivatives” (priority 1976, dated 1980).
Like-named read-outs stand apart in the source and are kept apart here.

What was measured:
[1] = test system: Bacillus subtilis ATCC 6 633; assay: MIC, dilution in liquid medium; type: cell-based; conditions: for MIC: Bacillus subtilis
Procedure: (§1) The method used was a dilution of a liquid medium where a series of tubes received the same quantity of a sterile nutritive media and increasing doses of the test compounds were placed therein. Then each tube was seeded with a bacterial strain and was incubated for 24 to 48 hours at 37° C. in an oven. The increasing inhibition was determined by transillumination to determine the minimum inhibiting concentration (MIC in […]) and the results are reported in the following Tables.

Enterobacter cloacae 681 = assay: MIC, dilution in liquid medium; type: cell-based
Procedure: as §1

[2] = test system: Escherichia Coli Exp. TO26 B6; assay: MIC, dilution in liquid medium; type: cell-based; conditions: for MIC: Escherichia coli
Procedure: as §1

[3] = test system: Escherichia Coli Resistant Gentamicine, Tobramycine R 55 123 D; assay: MIC, dilution in liquid medium; type: cell-based; conditions: Escherichia coli
Procedure: as §1

[4] = test system: Escherichia Coli Resistant Tetracycline ATCC 11 303 = UC 1261; assay: MIC, dilution in liquid medium; type: cell-based; conditions: Escherichia coli
Procedure: as §1

[5] = test system: Escherichia Coli Sensible Tetracycline ATCC 9 637 = 1020; assay: MIC, dilution in liquid medium; type: cell-based; conditions: Escherichia coli
Procedure: as §1

[6] = test system: Klebsiella pneumoniae 2 536 Resistant Gentamicine; assay: MIC, dilution in liquid medium; type: cell-based; conditions: Klebsiella pneumoniae
Procedure: as §1

[7] = test system: Klebsiella pneumoniae Exp. 52 145; assay: MIC, dilution in liquid medium; type: cell-based; conditions: for MIC: Klebsiella pneumoniae
Procedure: as §1

[8] = test system: Proteus mirabilis (indol-) A 235; assay: MIC, dilution in liquid medium; type: cell-based; conditions: for MIC: Proteus mirabilis
Procedure: as §1

[9] = test system: Salmonella typhimurium 420; assay: MIC, dilution in liquid medium; type: cell-based; conditions: Salmonella enterica, TYPHIMURIUM
Procedure: as §1

[10] = test system: Staphylococcus aureus ATCC 5 638 Pen-Sensible = UC 1061; assay: MIC, dilution in liquid medium; type: cell-based
Procedure: as §1

[11] = test system: Staphylococcus aureus UC 1 128 Pen-Resistant; assay: MIC, dilution in liquid medium; type: cell-based; conditions: Staphylococcus aureus
Procedure: as §1

[12] = test system: Staphylococcus aureus exp. n° 54 146; assay: MIC, dilution in liquid medium; type: cell-based; conditions: Staphylococcus aureus
Procedure: as §1

[13] = test system: Streptococcus pyogenes A 561; assay: MIC, dilution in liquid medium; type: cell-based; conditions: Streptococcus pyogenes
Procedure: as §1

Providencia Du 48 = assay: MIC, dilution in liquid medium; type: cell-based; conditions: for MIC: Providencia
Procedure: as §1

[14] = test system: Serratia Resistant Gentamicine 2 532; assay: MIC, dilution in liquid medium; type: cell-based
Procedure: as §1

[15] = test system: Streptococcus faecalis 5 432; assay: MIC, dilution in liquid medium; type: cell-based
Procedure: as §1

[16] = test system: Streptococcus faecalis 99 F 74; assay: MIC, dilution in liquid medium; type: cell-based; conditions: Enterococcus faecalis
Procedure: as §1

[17] = test system: Proteus vulgaris (indol+) A 232; assay: MIC, dilution in liquid medium; type: cell-based; conditions: Proteus vulgaris, read-out: M.I.C.
Procedure: as §1

[18] = test system: Pseudomonas 3 935 Exp. SG; assay: MIC, dilution in liquid medium; type: cell-based; conditions: Pseudomonas, 3935EXP.SG, read-out: M.I.C.
Procedure: as §1

Proteus Mirabilis A 235 = assay: Experimental infection of Proteus Mirabilis in mice; type: in vivo
Procedure: Groups of 10 mice with an average weight of 22 g received intraperitoneally 0.5 ml of a 24 hour old culture in oxoid bouillon of Proteus Mirabilis A 235 diluted 1/4 with distilled water. The mice then received subcutaneously the compound of Examples 11 or 15 one hour and 5 and 24 hours after the infection and the results are reported in the following Table.

[19] = Enterobacter cloacae, 681, 24 h
[20] = Enterobacter cloacae, 681, 48 h
[21] = EXP.52145, 24 h, 24 H, read-out: M.I.C.
[22] = A561, 24 h, 24 H, read-out: M.I.C.
[23] = A561, 48 h, 48 H, read-out: M.I.C.
[24] = ATCC9, 24 h, 24 H, read-out: M.I.C.
[25] = ATCC9, 48 h, 48 H, read-out: M.I.C.

CC(=O)OCC1=C(C(=O)O)N2C(=O)[C@@H](NC(=O)/C(=N/O)c3csc(N)n3)[C@H]2SC1 [3-acetoxymethyl-7-[2-(2amino-4-thiazolyl)-2-hydroxyiminoacetamido]-ceph-3-eme-4-carboxylic acid]
0.6 µg/mL: MIC [7, 21] | MIC ([7]; EXP.52145, 48 h, 48 H)
1 µg/mL: MIC ([4]; 24 h) | MIC ([4]; 48 h)
40 µg/mL: MIC (Enterobacter cloacae 681; [19]) | MIC (Enterobacter cloacae 681; [20]) | MIC ([6]; 48 h)
2 µg/mL: MIC ([1]; ATCC6, 24 h, 24 H) | MIC ([2]; 24 h) | MIC ([2]; 48 h) | MIC ([8]; 24 h) | MIC ([8]; 48 h) | MIC ([9]; 24 h) | MIC ([9]; 48 h)
5 µg/mL: MIC ([1]; ATCC6, 48 h, 48 H) | MIC ([3]; 24 h) | MIC ([10]; 24 h, UC 1061 Pen-Sensible) | MIC ([10]; 48 h, UC 1061 Pen-Sensible) | MIC ([12]; 24 h)
3 µg/mL: MIC ([5]; ATCC 9 / UC1020, 24 h, 24 H, ST UC 1020) | MIC ([5]; ATCC 9 / UC1020, 48 h, 48 H, ST UC 1020)
20 µg/mL: MIC ([6]; 24 h)
0.5 µg/mL: MIC [13, 22] | MIC [13, 23]
10 µg/mL: MIC ([3]; 48 h, RG R55 123D, read-out: M.I.C.) | MIC ([11]; UC1, 24 h, read-out: M.I.C.) | MIC ([11]; UC1, 48 h, read-out: M.I.C.) | MIC ([12]; 48 h, read-out: M.I.C.)

C=CO/N=C(\C(=O)NC1C(=O)N2C(C(=O)O)=C(COC(C)=O)CSC12)c1csc(N)n1 (stereo not drawn) [Product B, syn isomer of 3-acetoxymethyl-7-[2-(2-amino-4-thiazolyl)-2-vinyloxyimino-acetamido]-ceph-3-eme-4-carboxylic acid]
0.05 µg/mL: MIC ([4]; 24 h, read-out: M.I.C.)
0.5 µg/mL: MIC ([3]; 24 h, read-out: M.I.C.) | MIC ([3]; 48 h, read-out: M.I.C.) | MIC [5, 24] | MIC [5, 25] | MIC ([9]; 24 h, read-out: M.I.C.) | MIC ([9]; 48 h, read-out: M.I.C.)
10 µg/mL: MIC ([16]; 99F74, 48 h, read-out: M.I.C.)
0.95 µg/mL: MIC ([4]; 48 h, read-out: M.I.C.)
5 µg/mL: MIC ([1]; ATCC6, 48 h, 48 H) | MIC (Enterobacter cloacae 681; [20]) | MIC ([15]; Enterococcus faecalis, 5432, 48 h, 48 H) | MIC ([16]; 99F74, 24 h, 24 H)
0.2 µg/mL: MIC ([2]; 24 h) | MIC ([2]; 48 h)
3 µg/mL: MIC (Enterobacter cloacae 681; [19]) | MIC ([15]; Enterococcus faecalis, 5432, 24 h, 24 H)
≤ 0.02 µg/mL: MIC [7, 21] | MIC ([7]; EXP.52145, 48 h, 48 H, read-out: M.I.C.) | MIC ([8]; 24 h, read-out: M.I.C.) | MIC ([8]; 48 h, read-out: M.I.C.) | MIC [13, 22] | MIC [13, 23]
2 µg/mL: MIC ([1]; ATCC6, 24 h, 24 H) | MIC ([6]; 48 h) | MIC (Providencia Du 48; DU48, 24 h, 24 H) | MIC (Providencia Du 48; DU48, 48 h, 48 H) | MIC ([14]; 48 h) | MIC ([12]; 48 h)
1 µg/mL: MIC ([6]; 24 h) | MIC ([14]; 24 h) | MIC ([10]; 24 h) | MIC ([10]; 48 h) | MIC ([11]; UC1, 24 h, 24 H) | MIC ([11]; UC1, 48 h, 48 H) | MIC ([12]; 24 h)

CCO/N=C(/C(=O)NC1C(=O)N2C(C(=O)O)=C(COC(C)=O)CSC12)c1csc(N)n1 (stereo not drawn) [Example 15, anti isomer of 3-acetoxymethyl-7-[2-(2-amino-4-thiazolyl)-2-ethoxyiminoacetamido]-ceph-3-eme-4-carboxylic acid]
100 µg/mL: MIC ([3]; 24 h, read-out: M.I.C.) | MIC ([3]; 48 h, read-out: M.I.C.) | MIC (Providencia Du 48; DU48, 24 h, 24 H, read-out: M.I.C.) | MIC ([9]; 24 h, read-out: M.I.C.) | MIC ([9]; 48 h, read-out: M.I.C.)
1: MORTALITY AFTER 6H55 (Proteus Mirabilis A 235; 0.5 mg subcutaneously) | MORTALITY AFTER 23H10 (Proteus Mirabilis A 235; 1 mg subcutaneously) | MORTALITY AFTER 23H30 (Proteus Mirabilis A 235; 1 mg subcutaneously) | MORTALITY AFTER 70H (Proteus Mirabilis A 235; 1 mg subcutaneously)
20 µg/mL: M.I.C. ([1]; 24 H) | MIC ([4]; 24 h) | MIC ([4]; 48 h) | MIC ([7]; EXP.52145, 24 h, 24 H) | MIC ([7]; EXP.52145, 48 h, 48 H) | MIC ([10]; 24 h) | MIC ([10]; 48 h)
0/10: Mice Alive on the 8th day (Proteus Mirabilis A 235; 0.5 mg subcutaneously) | Mice Alive on the 8th day (Proteus Mirabilis A 235; 1 mg subcutaneously)
2: MORTALITY AFTER 28H (Proteus Mirabilis A 235; 1 mg subcutaneously)
1 µg/mL: MIC ([13]; A561, 24 h) | MIC ([13]; A561, 48 h)
5: MORTALITY AFTER 21H30 (Proteus Mirabilis A 235; 1 mg subcutaneously)
> 100 µg/mL: MIC [5, 24] | MIC [5, 25] | MIC ([6]; 24 h, read-out: M.I.C.) | MIC ([6]; 48 h, read-out: M.I.C.) | MIC ([17]; 24 h) | MIC ([17]; 48 h) | M.I.C. (Providencia Du 48; 24 H) | MIC (Providencia Du 48; DU48, 48 h, 48 H, read-out: M.I.C.) | MIC ([18]; 24 h) | MIC ([18]; 48 h) | MIC ([14]; 24 h, read-out: M.I.C.) | MIC ([14]; 48 h, read-out: M.I.C.) | MIC ([15]; Enterococcus faecalis, 5432, 24 h, read-out: M.I.C.) | MIC ([15]; Enterococcus faecalis, 5432, 48 h, read-out: M.I.C.) | MIC ([16]; 99F74, 24 h, read-out: M.I.C.) | MIC ([16]; 99F74, 48 h, read-out: M.I.C.)
5 µg/mL: M.I.C. ([8]; 24 H)
10 µg/mL: MIC ([1]; ATCC6, 24 h, 24 H, read-out: M.I.C.) | MIC ([4]; 24 h, read-out: M.I.C.) | MIC ([4]; 48 h, read-out: M.I.C.) | MIC ([8]; 24 h, read-out: M.I.C.)
0.4 µg/mL: MIC [13, 22] | MIC [13, 23]
9: MORTALITY AFTER 21H30 (Proteus Mirabilis A 235; 0.5 mg subcutaneously)
40 µg/mL: M.I.C. ([2]; 48 H) | MIC ([3]; 24 h) | MIC ([3]; 48 h) | M.I.C. ([7]; 24 H) | M.I.C. ([7]; 48 H) | MIC ([11]; UC1, 24 h, 24 H) | MIC ([11]; UC1, 48 h, 48 H) | MIC ([12]; 24 h) | MIC ([12]; 48 h)
